# Assay results: ChEMBL document CHEMBL5226297, “Small-Molecule Drug Discovery in Triple Negative Breast Cancer: Current Situation and Future Directions” (J Med Chem, 2021)
# Assays:
# [1] = molecular target: Plasminogen activator inhibitor 1 (Homo sapiens) (UniProt P05121)
# SUM185PE = test: Anticancer activity against human SUM185PE cells assessed as cell growth inhibition incubated for 6 days by CellTiter96 analysis; type: functional, cell-based; settings: 144 h
# MDA-MB-231 [2] = test: Anticancer activity against human MDA-MB-231 cells assessed as cell growth inhibition incubated for 72 hrs by MTT assay; type: functional, cell-based; settings: MDA-MB-231, 72 h
# MDA-MB-436 [3] = test: Anticancer activity against human MDA-MB-436 cells assessed as cell growth inhibition incubated for 72 hrs by MTT assay; type: functional, cell-based; settings: MDA-MB-436, 72 h
# MDA-MB-231 [4] = test: Anticancer activity against human MDA-MB-231 cells assessed as cell growth inhibition; type: functional, cell-based
# MDA-MB-468 [5] = test: Anticancer activity against human MDA-MB-468 cells assessed as cell growth inhibition incubated for 48 hrs by BrdU assay; type: functional, cell-based; settings: MDA-MB-468, 48 h
# MDA-MB-231 [6] = test: Anticancer activity against human MDA-MB-231 cells assessed as cell growth inhibition incubated for 48 hrs by BrdU assay; type: functional, cell-based; settings: MDA-MB-231, 48 h
# MDA-MB-231 [7] = test: Anticancer activity against human MDA-MB-231 cells assessed as cell growth inhibition incubated for 5 days by sulforhodamine B staining based assay; type: functional; settings: MDA-MB-231, 120 h
# HCC1937 [8] = test: Anticancer activity against human HCC1937 cells assessed as cell growth inhibition incubated for 5 days by sulforhodamine B staining based assay; type: functional; settings: HCC1937, 120 h
# BT-20 = test: Anticancer activity against human BT-20 cells assessed as cell growth inhibition incubated for 5 days by sulforhodamine B staining based assay; type: functional; settings: BT-20, 120 h
# HCC70 = test: Anticancer activity against human HCC70 cells assessed as cell growth inhibition incubated for 5 days by sulforhodamine B staining based assay; type: functional; settings: HCC70, 120 h
# SUM149PT = test: Anticancer activity against human SUM149 cells assessed as cell growth inhibition incubated for 5 days by sulforhodamine B staining based assay; type: functional; settings: 120 h
# SUM-159-PT = test: Anticancer activity against human SUM159 cells assessed as cell growth inhibition incubated for 5 days by sulforhodamine B staining based assay; type: functional; settings: 120 h
# HCC1806 [9] = test: Anticancer activity against human HCC1806 cells assessed as cell growth inhibition incubated for 5 days by sulforhodamine B staining based assay; type: functional; settings: HCC1806, 120 h
# BT-549 = test: Anticancer activity against human BT-549 cells assessed as cell growth inhibition incubated for 24 hrs by MTT assay; type: functional, cell-based; settings: BT-549, 24 h
# MDA-MB-436 [10] = test: Anticancer activity against human MDA-MB-436 cells assessed as cell growth inhibition incubated for 24 hrs by MTT assay; type: functional, cell-based; settings: MDA-MB-436, 24 h
# MDA-MB-231 [11] = test: Anticancer activity against human MDA-MB-231 cells assessed as cell growth inhibition incubated for 24 hrs by MTT assay; type: functional, cell-based; settings: MDA-MB-231, 24 h
# MDA-MB-231 [12] = test: cells; settings: Homo sapiens, MDA-MB-231, 48 h
# HCC38 [13] = test: Anticancer activity against human HCC38 cells assessed as cell growth inhibition by crystal violet staining based haemocytometer analysis; type: functional
# MDA-MB-436 [14] = test: Anticancer activity against human MDA-MB-436 cells assessed as cell growth inhibition by crystal violet staining based haemocytometer analysis; type: functional
# MDA-MB-231 [15] = test: Anticancer activity against human MDA-MB-231 cells assessed as cell growth inhibition by crystal violet staining based haemocytometer analysis; type: functional
# MDA-MB-231 [16] = test: Anticancer activity against human MDA-MB-231 cells assessed as cell growth inhibition by MTS assay; type: functional, cell-based
# MDA-MB-231 [17] = test: cells; settings: Homo sapiens
# HCC38 [18] = test: Anticancer activity against human HCC38 cells assessed as cell growth inhibition by MTT assay; type: functional, cell-based
# MDA-MB-468 [19] = test: Anticancer activity against human MDA-MB-468 cells assessed as cell growth inhibition by MTT assay; type: functional, cell-based
# [20] = molecular target: Dual specificity mitogen-activated protein kinase kinase 1 (Homo sapiens, UniProt Q02750); test: Inhibition of MEK1 (unknown origin)
# [21] = molecular target: Proto-oncogene tyrosine-protein kinase Src (Homo sapiens, UniProt P12931); test: Inhibition of human SRC by microplate reader analysis
# HCC1806 [22] = test: Anticancer activity against human HCC1806 cells assessed as cell growth inhibition incubated for 24 hrs by MTS assay; type: functional, cell-based; settings: HCC1806, 24 h
# HCC1937 [23] = test: Anticancer activity against human HCC1937 cells assessed as cell growth inhibition incubated for 24 hrs by MTS assay; type: functional, cell-based; settings: HCC1937, 24 h
# Interleukin-8 = Interleukin-8 (Homo sapiens, UniProt P10145); test: Inhibition of human IL-8 by ELISA assay
# Interleukin-8, sequence (P10145 whole entry): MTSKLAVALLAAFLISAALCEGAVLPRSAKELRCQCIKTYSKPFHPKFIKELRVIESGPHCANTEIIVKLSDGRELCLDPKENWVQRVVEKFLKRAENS
# Proto-oncogene tyrosine-protein kinase Src, sequence (P12931 2-536 limits assumed): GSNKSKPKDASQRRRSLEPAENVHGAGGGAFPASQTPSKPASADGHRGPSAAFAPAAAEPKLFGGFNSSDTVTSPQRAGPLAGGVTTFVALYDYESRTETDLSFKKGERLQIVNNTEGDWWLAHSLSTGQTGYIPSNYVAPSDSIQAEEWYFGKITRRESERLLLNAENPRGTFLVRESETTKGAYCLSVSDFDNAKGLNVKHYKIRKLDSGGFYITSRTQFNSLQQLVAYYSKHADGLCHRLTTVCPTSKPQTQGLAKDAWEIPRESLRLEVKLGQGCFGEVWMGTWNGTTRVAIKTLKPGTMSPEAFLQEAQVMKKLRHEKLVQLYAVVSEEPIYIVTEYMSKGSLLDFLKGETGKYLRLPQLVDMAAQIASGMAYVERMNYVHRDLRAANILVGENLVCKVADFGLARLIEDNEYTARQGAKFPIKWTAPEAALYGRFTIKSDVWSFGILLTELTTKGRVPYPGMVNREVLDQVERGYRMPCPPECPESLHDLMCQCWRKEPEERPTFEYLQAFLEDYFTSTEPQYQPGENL
# Plasminogen activator inhibitor 1 (Homo sapiens), sequence (P05121 whole entry): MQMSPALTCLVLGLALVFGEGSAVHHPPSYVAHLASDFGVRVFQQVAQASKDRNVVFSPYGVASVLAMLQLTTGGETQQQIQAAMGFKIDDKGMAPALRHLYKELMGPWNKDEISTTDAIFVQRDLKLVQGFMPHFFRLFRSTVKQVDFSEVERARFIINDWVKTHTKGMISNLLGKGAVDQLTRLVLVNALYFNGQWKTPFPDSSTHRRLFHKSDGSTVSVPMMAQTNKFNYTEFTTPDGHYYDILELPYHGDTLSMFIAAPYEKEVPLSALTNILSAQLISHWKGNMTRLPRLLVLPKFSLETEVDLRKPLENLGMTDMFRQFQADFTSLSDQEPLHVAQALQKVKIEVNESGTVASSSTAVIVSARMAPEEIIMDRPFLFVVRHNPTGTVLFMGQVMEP
# Dual specificity mitogen-activated protein kinase kinase 1, sequence (Q02750 whole entry): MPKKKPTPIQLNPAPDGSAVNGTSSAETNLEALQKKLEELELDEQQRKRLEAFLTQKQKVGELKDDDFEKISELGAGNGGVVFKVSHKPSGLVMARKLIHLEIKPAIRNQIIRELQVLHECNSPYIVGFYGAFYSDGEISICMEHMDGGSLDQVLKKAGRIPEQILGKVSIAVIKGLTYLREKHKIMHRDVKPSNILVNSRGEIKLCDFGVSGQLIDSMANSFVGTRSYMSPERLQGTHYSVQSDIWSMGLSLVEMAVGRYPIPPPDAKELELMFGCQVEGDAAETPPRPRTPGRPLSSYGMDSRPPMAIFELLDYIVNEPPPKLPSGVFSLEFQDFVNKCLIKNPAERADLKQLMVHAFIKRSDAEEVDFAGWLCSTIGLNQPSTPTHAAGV
structure (smiles),measurement,setting,value
O=C(O)C(=O)c1cn(Cc2ccccc2)c2ccc(-c3ccc(OC(F)(F)F)cc3)cc12,IC,[1],5 µM
CCN(CC)CCCCNc1ncc2cc(-c3cc(OC)cc(OC)c3)c(NC(=O)NC(C)(C)C)nc2n1 [PD-173074],IC50,SUM185PE,20 nM
C=C1C(=O)O[C@@H]2/C=C(\C)[C@@H](O)C/C=C(/C)C[C@@H](OC(=O)/C(C)=C/CO)[C@@H]12,IC50,MDA-MB-231 [2],3.21 µM
same,IC50,MDA-MB-436 [3],3.04 µM
CO[C@H]1C[C@H](C)Cc2cc(O)cc(c2)NC(=O)/C(C)=C/CC[C@H](OC)[C@@H](OC(N)=O)/C(C)=C/[C@H](C)[C@H]1O,IC50,MDA-MB-231 [4],74.9 µM
CC(C)CC[C@@H]1NC(=O)[C@]2(C)CCCN2C1=O,IC50,MDA-MB-468 [5],67.4 µM
same,IC50,MDA-MB-231 [6],73.4 µM
CCNc1cc(O)c2c(c1)/C=C/C[C@H](O)[C@H](O)C(=O)/C=C\[C@@H](C)[C@H](C)OC2=O [E-6201],IC50,MDA-MB-231 [7],250 nM
same,IC50,HCC1937 [8],3.73 µM
same,IC50,BT-20,10.1 µM
same,IC50,HCC70,8.79 µM
same,IC50,SUM149PT,210 nM
same,IC50,SUM-159-PT,2360 nM
same,IC50,HCC1806 [9],2500 nM
C=C1C(=O)O[C@]2(C)CC[C@H](CBr)[C@]12O,IC50,BT-549,9.63 µM
same,IC50,MDA-MB-436 [10],11.8 µM
same,IC50,MDA-MB-231 [11],12.1 µM
C=C(C)[C@@H]1CCC(C)=C[C@H]1c1c(O)cc(CCCCC)cc1O [CANNABIDIOL],IC50,MDA-MB-231 [12],6 µM
CC(=O)N1c2ccccc2Oc2ccccc21,IC50,MDA-MB-231 [11],0.3 µM
CC(=O)c1c(C)c2cnc(Nc3ccc(N4CCNCC4)cn3)nc2n(C2CCCC2)c1=O [PALBOCICLIB],EC50,HCC38 [13],1400 nM
same,EC50,MDA-MB-436 [14],5 µM
same,EC50,MDA-MB-231 [15],300 nM
C=C1C(=O)O[C@]2(C)CC[C@H](CBr)[C@]12OC,IC50,BT-549,6.61 µM
same,IC50,MDA-MB-436 [10],8.63 µM
same,IC50,MDA-MB-231 [11],7.91 µM
CC[C@@H](C(=O)[C@@H](C)[C@@H](O)[C@H](C)[C@@H]1O[C@@H]([C@@H](CC)C(=O)O)CC[C@@H]1C)[C@H]1O[C@]2(C=C[C@@H](O)[C@]3(CC[C@@](C)([C@H]4CC[C@](O)(CC)[C@H](C)O4)O3)O2)[C@H](C)C[C@@H]1C [SALINOMYCIN],IC50,MDA-MB-231 [16],500 nM
O=C(NC[C@H](O)CN1CCc2ccccc2C1)c1cc(NC2COC2)ncn1,IC50,MDA-MB-231 [17],60 µM
same,IC50,HCC38 [18],5 µM
same,IC50,MDA-MB-468 [19],1000 nM
C=Cc1c(C)c2cc3nc(c4c5nc(cc6[nH]c(cc1[nH]2)c(C)c6CC)C(C)=C5C(=O)[C@@H]4C(=O)OC)C(CCC(=O)O)=C3C,IC50,MDA-MB-231 [2],6.5 µM
C=C1C(=O)O[C@@H]2C[C@@]3(C)CCC[C@H](C)C3=C[C@H]12 [HELENINE],IC50,MDA-MB-231 [11],15 µM
O=C(c1ccc(F)c(F)c1Nc1ccc(I)cc1F)N1CC(O)([C@@H]2CCCCN2)C1 [COBIMETINIB],IC50,[20],4.2 µM
N[C@@H](C(=O)N[C@@H]1C(=O)N2C(C(=O)O)=C(CSc3c[nH]nn3)CS[C@H]12)c1ccc(O)cc1 [CEFATRIZINE],IC50,MDA-MB-436 [10],30 µM
Cc1nc2c(c(C)c1O)CC(=O)N2,IC50,[21],3.23 µM
COC(=O)[C@@H](O)[C@](O)(CCC(C)C)C(=O)O[C@@H]1C(OC)=C[C@]23CCCN2CCc2cc4c(cc2[C@H]13)OCO4,IC50,HCC1806 [22],100 nM
same,IC50,HCC1937 [23],500 nM
Cc1nc(NCc2ccccc2F)ncc1C(=O)NCc1cccs1,IC50,MDA-MB-436 [10],7.89 µM
COc1ccc2cc3[n+](cc2c1OC)CCc1cc2c(cc1-3)OCO2 [BERBERINE],IC50,Interleukin-8,50 µM
